The text below walks through data of patent US20030032676A1, “Drugs for treatment of cerebral injury and methods of use thereof” (priority 2001, published 2003).

The test system of one test is lipid peroxidation. Kind of test: Lipid peroxidation in rat synaptosomal preparation (TBA-reactive substances). The test is classed as biochemical. Particulars: initiated by 2.5 μM Fe2SO4 and 500 μM ascorbic acid; rat synaptosomes.
In the next test the target is recombinant nNOS (Homo sapiens, UniProt P29475). As to conditions: recombinant nNOS and calcium dependent NOS activity in brain homogenates; from Osuka et al., 2001; cited from earlier work.
In the next test the test system is nitrotyrosine. Kind of test: Nitrotyrosine production after rMCAo, Western blot of cerebral cortex extracts. It is filed as in vivo, rat. As to conditions: 5 mg/kg; 68 kDa protein at 24 hours after rMCAo; P<0.05 compared to vehicle.
A further test has as its system reversible MCAo. Kind of test: Infarct volume by TTC staining after reversible MCAo (two hours of MCAo, then reperfusion). It is filed as in vivo, rat. Particulars: for Mean volume of the infarct: ±SEM, p<0.05.
In the next test the test system is EAA release. Kind of test: Glutamate (EAA) release measured by microdialysis during and after ischemia (rMCAo). As to conditions: 5 mg/kg i.v. before rMCAO. It is filed as in vivo, rat.
In another test the test system is permanent MCAo. Kind of test: Infarct volume by TTC staining after permanent MCAo. It is filed as in vivo, rat. Particulars: 20 mg/kg, maintained by IP injections every 12 h.
For test [1], the system named is volume-regulated anion channels (VRACs). Kind of test: Blockade of volume-regulated anion channels in vitro.

Sequence of recombinant nNOS (P29475 whole entry, species assumed): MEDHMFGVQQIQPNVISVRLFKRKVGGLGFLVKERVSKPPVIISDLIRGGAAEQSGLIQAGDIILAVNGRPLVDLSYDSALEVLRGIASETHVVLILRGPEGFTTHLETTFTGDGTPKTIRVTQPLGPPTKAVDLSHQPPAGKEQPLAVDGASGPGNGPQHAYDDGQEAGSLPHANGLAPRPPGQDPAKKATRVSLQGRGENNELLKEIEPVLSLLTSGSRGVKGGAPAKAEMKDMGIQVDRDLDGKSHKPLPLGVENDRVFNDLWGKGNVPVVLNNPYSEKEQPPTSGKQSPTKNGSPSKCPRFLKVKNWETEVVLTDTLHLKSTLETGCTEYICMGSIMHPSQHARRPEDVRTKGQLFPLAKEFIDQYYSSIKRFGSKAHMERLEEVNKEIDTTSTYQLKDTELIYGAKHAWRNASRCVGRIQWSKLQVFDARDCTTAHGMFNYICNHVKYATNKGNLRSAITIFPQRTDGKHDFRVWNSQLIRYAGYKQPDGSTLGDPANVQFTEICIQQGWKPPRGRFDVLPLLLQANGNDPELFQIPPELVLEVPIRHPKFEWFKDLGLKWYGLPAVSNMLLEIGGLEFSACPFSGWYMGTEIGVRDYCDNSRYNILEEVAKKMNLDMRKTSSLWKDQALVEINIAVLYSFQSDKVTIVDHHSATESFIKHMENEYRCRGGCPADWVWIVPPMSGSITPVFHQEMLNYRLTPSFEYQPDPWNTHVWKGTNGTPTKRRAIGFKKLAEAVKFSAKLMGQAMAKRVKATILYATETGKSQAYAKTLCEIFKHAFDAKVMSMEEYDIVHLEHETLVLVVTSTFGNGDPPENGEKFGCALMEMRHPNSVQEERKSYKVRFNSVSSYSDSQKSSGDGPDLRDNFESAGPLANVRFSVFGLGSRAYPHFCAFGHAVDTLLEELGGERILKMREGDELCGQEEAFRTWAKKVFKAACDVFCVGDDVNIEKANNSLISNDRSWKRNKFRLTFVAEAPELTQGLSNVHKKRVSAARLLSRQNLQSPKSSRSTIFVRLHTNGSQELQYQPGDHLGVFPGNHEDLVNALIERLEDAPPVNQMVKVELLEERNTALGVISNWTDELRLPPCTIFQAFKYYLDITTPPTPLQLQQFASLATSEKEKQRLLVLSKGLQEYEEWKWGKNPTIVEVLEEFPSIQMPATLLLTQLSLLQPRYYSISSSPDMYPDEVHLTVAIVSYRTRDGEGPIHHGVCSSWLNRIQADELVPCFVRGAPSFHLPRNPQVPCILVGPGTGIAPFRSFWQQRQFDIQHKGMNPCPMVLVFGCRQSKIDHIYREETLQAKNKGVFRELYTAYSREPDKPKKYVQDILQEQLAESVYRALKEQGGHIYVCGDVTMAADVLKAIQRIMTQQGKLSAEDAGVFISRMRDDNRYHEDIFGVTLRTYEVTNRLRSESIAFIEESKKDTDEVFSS
Protocol for lipid peroxidation: Lipid peroxides in sedimented synaptosomal membranes were analyzed by 2-thiobarbituric acid (TBA) with the TBA-reactive substances determined spectrophotometrically (Ohkawa et al., 1979). *P<0.05

For `CCC(=C(c1ccccc1)c1ccc(OCCN(C)C)cc1)c1ccccc1` (stereo in doubt) [tamoxifen, (Z)-2-[4-(1,2-diphenyl-1-butenyl)phenoxy]-N,N-dimethylethanamine], in the test on lipid peroxidation, the Lipid peroxidation result is recorded as “inhibits lipid peroxidation”. Further, on recombinant nNOS, the nNOS activity result was “inhibits nNOS”. Besides, the “Nitrotyrosine levels after rMCAo” value with nitrotyrosine was “reduces nitrotyrosine levels”. Also, the Infarct size result with reversible MCAo (tamoxifen at two and four hours after the infarct, reperfusion) is “essentially identical to the mean for untreated control animals”. Also, the “Mean volume of the infarct” value with reversible MCAo (tamoxifen given 1 hour after reperfusing after two hours of MCAo, TTC staining 72 h) amounted to 33±13 mm^3. The “Mean volume of the infarct” value with reversible MCAo (tamoxifen pretreatment, TTC staining 72 h after MCAo) was 41±21 mm^3. In addition, in the test with EAA release, the Contralateral glutamate levels result is on record as “no effect” and the “EAA (glutamate) release during ischemia” value was “reduces EAA release”. Further, in the test with permanent MCAo, the Infarct volume entry is reported as “reduces infarct volumes”. Also, the VRAC blockade entry in test [1] was “potently blocks VRACs”.
